Assay results taken from patent publication US9365862B1, “Herbicide resistant sorghum mutants” (NUtech Ventures, priority 2011, dated 2016).

Key:
Assay in all cases: Greenhouse bioassay for resistance to ALS-inhibiting herbicides (dry matter, visual injury)
Assay type in all cases: in vivo, Shattercane (Sorghum bicolor subsp. X drummondii)
[1] = tested on: shattercane biotype P8-30 (Mutant C); conditions: for resistance of the biotype to the herbicide: biotype P8-30 (Mutant C), relative to the wild-type, dry matter and visual ratings; for growth reduction: biotype P8-30, growth in the three weeks after herbicide application
Experimental: (§1) The bioassay experiment was conducted in a greenhouse on the East Campus of the University of Nebraska-Lincoln, in Lincoln, Nebr. The experimental design was a randomized complete block. Shattercane seed was planted in 0.9 L square plastic pots in Miracle-Gro® Moisture Control® Potting Mix (The Scotts Company LLC, Marysville, Ohio). The photoperiod was 15/9 light/dark with supplemental light provided by sodium halide lamps. Greenhouse temperatures were maintained at 24±2 C (day) and 19±2 C (night). Shattercane was thinned to 1 plant per pot when it reached the 2 leaf stage. Herbicide treatments (Table 1 in Appendix I) were applied when the shattercane reached the V4 growth stage and was approximately 12 cm tall. Individual plants ranged from growth stage V3 to V5, and in height from 7 to 19 cm. At least one tiller had formed on most plants by the time of application. Herbicides were applied using an 8001 even flat fan nozzle at 207 kPa in a single-tip track sprayer located in the greenhouse facility. The application rate was 187 l/ha, and treatment solutions were prepared in distilled water. Visual injury ratings were made 7, 14 and 21 days after treatment on a scale of 0 to 100, where 0 represents no injury and 100 represents plant death. At 21 DAT, plants were harvested at the soil surface, dried for 48 h at 70 C, and weighed to determine dry matter. Dry matter data for each experimental unit was divided by the average dry matter of the untreated control plants of that biotype and multiplied by 100 to determine relative percent biomass to the untreated control. Dry matter data for each experimental unit was also divided by the average dry matter data of the glyphosate-treated plants of that biotype to determine growth in the three weeks after herbicide application. Data were subjected to ANOVA using Proc GLM of SAS 9.1 (SAS Institute Inc., Cary, N.C.). The Run by Herbicide by Population interaction was significant for each variable, so runs were analyzed separately. The Herbicide by Population interaction was also significant for each run and each variable, so data were analyzed by herbicide to describe differences among the populations. Treatment means were separated using Duncan's Multiple Range test.

[2] = tested on: shattercane biotype P2-205 (Mutant A); conditions: dry matter and visual ratings
Experimental: as §1

[3] = tested on: shattercane biotype 5-4Farm (Mutant D); conditions: plants harvested 21 DAT
Experimental: as §1

wild type shattercane = conditions: wild type biotype, plants harvested 21 DAT
Experimental: as §1

[4] = tested on: shattercane biotype P9-102 (Mutant B); conditions: dry matter and visual ratings
Experimental: as §1

SMILES: COc1cc(OC)nc(Oc2cccc(Oc3nc(OC)cc(OC)n3)c2C(=O)O)n1 [bispyribac]
- resistance of the biotype to the herbicide [1]: partial resistance
- resistance of the biotype to the herbicide ([1]; listed as Bispyribac): resistance
- growth reduction [1]: approximately 65%

SMILES: CC(C)C1(C)N=C(c2nc3ccccc3cc2C(=O)O)NC1=O (stereo not drawn) [Imazaquin]
- resistance of the biotype to the herbicide [1]: resistance

SMILES: COCc1cnc(C2=NC(C)(C(C)C)C(=O)N2)c(C(=O)O)c1 (stereo not drawn) [imazamox]
- resistance of the biotype to the herbicide [2]: partially resistant
- resistance of the biotype to the herbicide ([2]; listed as Imazamox): resistance
- resistance of the biotype to the herbicide [1]: resistance

SMILES: COc1cnc(OC)n2nc(NS(=O)(=O)c3c(OCC(F)F)cccc3C(F)(F)F)nc12 [penoxsulam]
- effect on dry matter [3]: did not reduce dry matter
- effect on dry matter (wild type shattercane): did not reduce dry matter

SMILES: O=C(Nc1nc(OC(F)F)cc(OC(F)F)n1)NS(=O)(=O)c1ccccc1C(=O)O [primisulfuron]
- resistance of the biotype to the herbicide [4]: partially resistant
- resistance of the biotype to the herbicide ([4]; listed as Primisulfuron): resistance
- resistance of the biotype to the herbicide [2]: partially resistant
- resistance of the biotype to the herbicide ([2]; listed as Primisulfuron): resistance
- resistance of the biotype to the herbicide [1]: resistance

SMILES: CCS(=O)(=O)c1cccnc1S(=O)(=O)NC(=O)Nc1nc(OC)cc(OC)n1 [rimsulfuron]
- resistance of the biotype to the herbicide [1]: partial resistance
- resistance of the biotype to the herbicide ([1]; listed as Rimsulfuron): resistance
- growth reduction [1]: ~84%

SMILES: COc1nc(C)nc(NC(=O)NS(=O)(=O)c2ccccc2Cl)n1 [chlorsulfuron]
- resistance of the biotype to the herbicide [4]: resistance
- resistance of the biotype to the herbicide [2]: resistant
- resistance of the biotype to the herbicide ([2]; listed as Chlorsulfuron): resistance
- resistance of the biotype to the herbicide [1]: resistance

SMILES: COc1nn(C(=O)NS(=O)(=O)c2c(C(=O)O)csc2C)c(=O)n1C [thiencarbazone]
- resistance of the biotype to the herbicide [4]: partially resistant
- resistance of the biotype to the herbicide ([4]; listed as Thiencarbazone): resistance
- resistance of the biotype to the herbicide [2]: partially resistant
- resistance of the biotype to the herbicide ([2]; listed as Thiencarbazone): resistance
- resistance of the biotype to the herbicide [1]: resistance

SMILES: COc1cc(OC)nc(NC(=O)NS(=O)(=O)c2ncccc2C(=O)N(C)C)n1 [nicosulfuron]
- resistance of the biotype to the herbicide [4]: resistant
- resistance of the biotype to the herbicide [1]: resistance

SMILES: COc1cc(OC)nc(NC(=O)NS(=O)(=O)c2cc(NC=O)ccc2C(=O)N(C)C)n1 [foramsulfuron]
- resistance of the biotype to the herbicide [4]: resistant
- resistance of the biotype to the herbicide ([4]; listed as Foramsulfuron): resistance
- resistance of the biotype to the herbicide [2]: partially resistant
- resistance of the biotype to the herbicide ([2]; listed as Foramsulfuron): resistance
- resistance of the biotype to the herbicide [1]: resistance

SMILES: CCCOc1nn(C(=O)[N-]S(=O)(=O)c2ccccc2C(=O)OC)c(=O)n1C.[Na+] [propoxycarbazone]
- resistance of the biotype to the herbicide [4]: resistant
- resistance of the biotype to the herbicide ([4]; listed as Propoxycarbazone): resistance
- resistance of the biotype to the herbicide [2]: resistant
- resistance of the biotype to the herbicide ([2]; listed as Propoxycarbazone): resistance
- resistance of the biotype to the herbicide [1]: resistance

SMILES: CCc1cnc(C2=NC(C)(C(C)C)C(=O)N2)c(C(=O)O)c1 (stereo not drawn) [Imazethapyr]
- resistance of the biotype to the herbicide [1]: resistance
